Data taken from patent US20040259878A1, “Fluoromethotrexates and uses therefor” (priority 2003, published 2004).
Several values for one entry are separate records, joined by “and”; a condition that tells them apart may be missing. Equal entries are not always repeated. Where two headings read alike, the source gives them in different places.

Experiments:
[1] = system: human sarcoma cell line HT-1080; experiment: In vitro cytotoxicity against HT-1080, XTT/PMS cell viability assay
[2] = system: MTX-sensitive HT-1080 tumor xenograft; experiment: Tumor response (in vivo surviving fraction) with leucovorin rescue, HT-1080 xenograft; set-up: species or system athymic nude mice
Method: At 6 hours post 3′-fluoromethotrexate administration mice received i.p. hydration of 1.0 cc normal saline and at 24 hours received leucovorin (Bedford Laboratories, Bedford, Ohio) rescue therapy (36). This protocol allows the mice to survive what would otherwise be a fatal dosage of 3′-fluoromethotrexate and is analogous to that used in high-dose MTX therapy in humans. Tumor growth was monitored post-therapy.
The 3 perpendicular axes of the tumor were measured with a micrometer and the tumor volume modeled as a spheroid, i.e., v=π/6a·b·c, where a, b, c are the dimensions of the tumor axes in cm.
The parameter DT0 is the mean doubling time of the untreated, control group for each xenograft tumor model and TGD is the tumor growth delay for the treated tumor (the difference in tumor doubling time between the treated tumor and DT0).
Analysis of the tumor growth post-therapy allows for a comparison of the efficacy of MTX and 3′-fluoromethotrexate in terms of SF, the fraction of cells in the pretreatment tumor surviving therapy (Eqn. 3).

With `CN(Cc1cnc2nc(N)nc(N)c2n1)c1ccc(C(=O)N[C@@H](CCC(=O)O)C(=O)O)cc1` [MTX, methotrexate] the IC50 ([1]; Homo sapiens, HT-1080, 24 h, read-out: IC50 for 24 h drug exposure, normal medium = RPMI-1640 medium + 10% FCS, 24 h exposure) was 445 ± 148 nM, the IC50 ([1]; Homo sapiens, HT-1080, 24 h, read-out: IC50 for 24 h drug exposure, treated medium = thymidine-free RPMI-1640 + 10% FCS, 24 h exposure) was 69 ± 19 nM and the “SF, in vivo surviving fraction” value ([2]; 200 mg/kg, HT-1080 model) was 0.64±0.08. For the same compound, the “SF, in vivo surviving fraction” value ([2]; 400 mg/kg i.v. bolus, HT-1080 model) was 0.56±0.07.
For “N-(2-Fluoro-4-amino-4-deoxy-N-methyl-pteroyl)-L-glutamic acid [FMTX]”, the IC50 ([1]; read-out: IC50 for 24 h drug exposure, normal medium = RPMI-1640 medium + 10% FCS, 24 h exposure) was 345 ± 117 nM, the IC50 ([1]; read-out: IC50 for 24 h drug exposure, treated medium = thymidine-free RPMI-1640 + 10% FCS, 24 h exposure) was 26 ± 5 nM and the “SF, in vivo surviving fraction” value ([2]; mouse, in vivo) was 0.29±0.06 and 0.42±0.04.
